The record followed here is patent US11186533B2, “Chalcone compound and preparation method thereof” (SOUTH CHINA BOTANICAL GARDEN, CHINESE ACADEMY OF SCIENCES, priority 2018, dated 2021).

The nature of data set [1]: DPPH radical scavenging assay. Conditions: 0.2 mM DPPH in absolute ethanol, dark, room temperature, 30 minutes, absorbance at 517 nm; read-out: IC50 value against DPPH radicals. The protocol: DPPH is a stable free radical. When a free radical scavenger is present, light absorption of DPPH will be reduced when the single electron is scavenged, which allows to evaluate free radical scavenging ability of the substance and accordingly determine antioxidant ability thereof. The DPPH radical scavenging ability of the compound 2,2′,4,4′-tetrahydroxy-3-(2″-hydroxy-3″-methylbutyl-3″-alkenyl)chalcone was measured through the DPPH radical scavenging assay, so as to evaluate the antioxidant ability of the compound. The assay comprised the following steps:
1,1-Diphenyl-2-picrylhydrazyl (DPPH) was dissolved in absolute ethanol to obtain a solution with a concentration of 0.2 mM. The compound 2,2′,4,4′-tetrahydroxy-3-(2″-hydroxy-3″-methylbutyl-3″-alkenyl)chalcone was dissolved in absolute ethanol. 80 μL of the ethanol solution of 2,2′,4,4′-tetrahydroxy-3-(2″-hydroxy-3″-methylbutyl-3″-alkenyl)chalcone and 160 μL of the 0.2 mM DPPH ethanol solution were mixed and the mixture was placed in dark at room temperature for 30 minutes. Then, light absorbance at 517 nm was measured using a microplate reader (SpectraMax 190, Molecular Devices, USA).

The next data set can be described thus: Solubility in methanol. Format: physicochemical.

The term IC50 denotes the concentration that gives 50% inhibition. For the molecule `C=C(C)C(O)Cc1c(O)ccc(C(=O)/C=C/c2ccc(O)cc2O)c1O` (centres unmarked) [compound 1, 2,2′,4,4′-tetrahydroxy-3-(2″-hydroxy-3″-methylbutyl-3″-alkenyl)chalcone], the IC50 in data set [1] came out at 21.6 µM. In addition, the solubility in methanol entry in the data set “Solubility in methanol” is recorded as “easily soluble in methanol”.
